Measured values: US9586907B2, “Isothiocyanate compounds, pharmaceutical compositions, and uses thereof” (priority 2006, dated 2017)
Converted amounts (≈) assume the structure as drawn. Marks after values point to notes of the source that are not given here.

Legend:
M. intracellularie = experiment: MIC, M. intracellularie; format: cell-based; conditions: M. intracellularie
M. tuberculosis CDC1551 = experiment: MIC, M. tuberculosis CDC1551; format: cell-based
Protocol: (§1) Next, several of the bifunctional ITC compounds were tested for their ability to inhibit the growth of some clinical isolates of Mycobacteria, the results of which are summarized in Table 3 below.

M. tuberculosis AB = experiment: MIC, M. tuberculosis AB; format: cell-based
Protocol: as §1

[1] = system: Cryptococcus neoformans CNH99; experiment: Anti-fungal MIC, Cryptococcus neoformans CNH99; conditions: Cryptococcus neoformans CNH99
M. scrofulaceum = experiment: MIC, M. scrofulaceum; format: cell-based; conditions: M. scrofulaceum
M. tuberculosis W4 = experiment: MIC, M. tuberculosis W4; format: cell-based
Protocol: as §1

virus (92TH594) = experiment: Viral proliferation in PBMC, p24 viral antigen; format: cell-based; conditions: for P24 values: PBMC
M. tuberculosis W = experiment: MIC, M. tuberculosis W; format: cell-based
Protocol: as §1

[2] = system: Aspergillus fumigatus Rit 1; experiment: Anti-fungal MIC, Aspergillus fumigatus Rit 1; conditions: Aspergillus fumigatus Rit 1
M. avium = experiment: MIC, M. avium; format: cell-based; conditions: M. avium
[3] = system: Candida parapsilosis 22019; experiment: Anti-fungal MIC, Candida parapsilosis 22019; conditions: Candida parapsilosis 22019
[4] = system: human peritoneal macrophages infected with Mycobacterium tuberculosis H37Rv strain; experiment: In vitro infection model, cytotoxicity; conditions: up to 1 μg/mL; Rifampicin control
M. cansassi = experiment: MIC, M. cansassi; format: cell-based; conditions: M. cansassi
Mycobacteria = format: cell-based; conditions: Table 3
[5] = system: Aspergillus fumigatus Rit 11; experiment: Anti-fungal MIC, Aspergillus fumigatus Rit 11; conditions: Aspergillus fumigatus Rit 11
[6] = system: Candida albicans 5108^mdr; experiment: Anti-fungal MIC, Candida albicans 5108^mdr; conditions: Candida albicans 5108^mdr
M. bovis BCG = experiment: microbe, parasite or virus in culture; format: cell-based
M. tuberculosis P = experiment: MIC, M. tuberculosis P; format: cell-based
Protocol: as §1

M. tuberculosis 210 = experiment: MIC, M. tuberculosis 210; format: cell-based
Protocol: as §1

[7] = In vivo tolerance in mice; conditions: highest dose, 50 mg/kg
M. tuberculosis H37Rv = experiment: MIC, M. tuberculosis H37Rv; format: cell-based
Protocol: as §1

Candida albicans 90030 = experiment: Anti-fungal MIC, Candida albicans 90030; conditions: Candida albicans 90030
[8] = system: Aspergillus fumigatus Rit 21; experiment: Anti-fungal MIC, Aspergillus fumigatus Rit 21; conditions: Aspergillus fumigatus Rit 21
Candida albicans 90028 = experiment: Anti-fungal MIC, Candida albicans 90028; conditions: Candida albicans 90028
Candida dlabrata 250^mdr = experiment: Anti-fungal MIC, Candida dlabrata 250^mdr; conditions: Candida dlabrata 250^mdr; MIC determined at 48 hours of growth
[9] = system: Mycobacterium tuberculosis H37Rv strain; experiment: In vitro infection model, bacterial growth inhibition in infected macrophages; format: cell-based; conditions: M. tuberculosis H37Rv; up to 1 μg/mL; Rifampicin control
Description: Rifampicin was used as a control for this experiment.

[10] = system: human acute monocytic leukemia cells (THP1 cells); experiment: Growth of THP1 cells, MTT metabolic assay; format: cell-based; conditions: highest dosage of 32 μg/mL, 24 hours
Protocol: THP1 cells were either mock-treated (DMSO vehicle alone), or treated with increasing doses of new compounds 37 and 45, from 0 to 32 μg/mL. Cells were incubated in the presence of compound for 24 hours, and subsequently were assayed for total cell viability using an MTT, metabolic assay.

M. fortuitum = experiment: MIC, M. fortuitum; format: cell-based; conditions: M. fortuitum

Molecule `OCCCCCCCCN=C=S` [Compound 45, HO—(CH2)8—N═C═S] has an MIC (M. intracellularie) of 4 µg/mL (≈ 21.4 µM), an MIC (M. tuberculosis CDC1551) of 2 µg/mL (≈ 10.7 µM) and an MIC (M. tuberculosis AB) of 2 µg/mL (≈ 10.7 µM). For the same molecule, the “Anti-Fungal Activity (MIC)” value [1] was under 1 µg/mL, the MIC (M. scrofulaceum) was 8 µg/mL (≈ 42.7 µM) and the MIC (M. tuberculosis W4) was 1 µg/mL (≈ 5.34 µM). The “difference in antiviral activity with and without preincubation prior to viral infection” value (virus (92TH594); Tables 5 and 6 compared) was “no detectable difference”, the P24 values (virus (92TH594); compound 2.5 μg/ml, added to the cells after viral infection) was 975 pg/mL and the P24 values (virus (92TH594); compound 2.5 μg/ml, added to the cells before viral infection) was 960 pg/mL. For the same molecule, the P24 values (virus (92TH594); compound 10 μg/ml, added to the cells after viral infection) was 7 pg/mL, the P24 values (virus (92TH594); compound 10 μg/ml, added to the cells before viral infection) was 6 pg/mL and the MIC (M. tuberculosis W) was 1 µg/mL (≈ 5.34 µM). The “Anti-Fungal Activity (MIC)” value [2] was 8 µg/mL, the MIC (M. avium) was 4 µg/mL (≈ 21.4 µM) and the “Anti-Fungal Activity (MIC)” value [3] was 8 µg/mL. The “cytotoxicity in infected macrophages” value [4] was “low cytotoxicity, similar to Rifampicin”, the MIC (M. cansassi) was 1 µg/mL (≈ 5.34 µM) and the “activity against Mycobacteria (in words)” value (Mycobacteria) was “highest activity”. For the same molecule, the “Anti-Fungal Activity (MIC)” value [5] was 8 µg/mL, the “Anti-Fungal Activity (MIC)” value [6] was 4 µg/mL and the “Anti-Fungal Activity (MIC)” value (Candida crusei 6258^mdr) was 4 µg/mL. It also gave an MIC (M. bovis BCG) of 0.5 µg/mL (≈ 2.67 µM), an MIC (M. tuberculosis P) of 2 µg/mL (≈ 10.7 µM) and an MIC (M. tuberculosis 210) of 1 µg/mL (≈ 5.34 µM). For the same molecule, the “toxicity in treated mice” value [7] was “no toxicity was observed”, the MIC (M. tuberculosis H37Rv) was 1 µg/mL (≈ 5.34 µM) and the “Anti-Fungal Activity (MIC)” value (Candida albicans 90030) was 4 µg/mL. The “Anti-Fungal Activity (MIC)” value [8] was 8 µg/mL, the “Anti-Fungal Activity (MIC)” value (Candida albicans 90028) was 8 µg/mL and the “Anti-Fungal Activity (MIC)” value (Candida dlabrata 250^mdr) was 4** μg/mL. For the same molecule, the “growth inhibitory activity in infected macrophages” value [9] was “comparabale with the inhibition observed for Rifampicin”, the “effect on growth of THP1 cells” value [10] was “not able to affect the growth of THP1 cells” and the MIC (M. fortuitum) was 4 µg/mL (≈ 21.4 µM).
